Assays:
Assay type in all cases: in vivo, rat (Wistar strain male)
[1] = tested on: 48-Hours PCA (passive cutaneous anaphylaxis); experiment: Test Example 1: Anti-passive cutaneous anaphylaxis (PCA) activity in rats, 48-Hours PCA (Ia compounds); conditions: Rattus norvegicus, po, 1 hour before the elicitation; for inhibition in vivo at 15 mg/kg / inhibition in vivo at 25 mg/kg: perorally
Protocol: (§1) Anti-passive cutaneous anaphylaxis (PCA) activity in rats (Materials and Method)
(§2) Wistar strain male rats (6 weeks old) were purchased from Shizuoka Experimental Animal Agricultural Cooperative (Japan), habituated to a breeding environment for 1 week before using for the experiment.
(§3) (2) Preparation of antiserum
(§4) Preparation of antiserum was carried out according to the method described in J. Immunol. 106, 1002-1011 (1971).
(§5) Thus, Ascaris suum extract was dinitrophenylated (DNP-As) and infused subcutaneously together with dead Bordetella pertussis at four sites on the foot-pad of the Wistar strain male rats. After 5 days, the rats were boostered with DNP-As (1 mg) at the dorsal muscle for additional sensitization. After 3 days, blood samples were collected and serum was separated which was used as anti DNP-As antiserum. The titer of the antiserum was measured by rats 48-hours PCA and found to be 1:200.
(§6) Rats were sensitized with 35 times dilution of anti DNA-As antiserum administered at two sites in the pre-clipped right dorsal skin. After 48 hours, DNP-As (500 μg in 0.5 % Evans blue-physiological saline (1 ml) was administered into caudal vein to elicit the reaction. Then, 30 minutes later, the animals were decapitated, the dorsal skin was peeled, two sensitized areas as well as one control area were cut off and analyzed for Evans blue exudation which was used as an indivative of the reaction according to the method disclosed in Microbiol. Immunol. 22, 89-101 (1978). Thus, cut skins were treated with 1N-KOH (1 ml) and incubated at 37° C. for 16 hours to dissolve the skin tissue. A mixed solution (9 ml) of 0.6N-phosphoric acid-acetone (5: 13) was added and the mixture was centrifuged (300 r.p.m.) for 15 minutes. The supernatant was assayed for absorption at 620 nm and the exudation of Evans blue was determined. Test compounds (I) of the present invention were administered perorally as a suspension in 0.5% tragacanth 1 hour before the elicitation.

[2] = tested on: 48-Hours PCA (passive cutaneous anaphylaxis); experiment: Test Example 2: Anti-passive cutaneous anaphylaxis (PCA) activity in rats, 48-Hours PCA (Ib compounds); conditions: Rattus norvegicus, po, P.O., 1 hour before the elicitation
Protocol: as §1, §2, §3, §4, §5
as §6, with “0.5%” for “0.5 %”

[3] = tested on: 48-Hours PCA (passive cutaneous anaphylaxis); experiment: Test Example 3: Anti-passive cutaneous anaphylaxis (PCA) activity in rats, 48-Hours PCA (Ic compounds); conditions: P.O., 1 hour before the elicitation
Protocol: as §1, §2, §3, §4, §5
as §6, with “0.5%” for “0.5 %”, “with” for “with 1N-KOH”, “mil)” for “ml) and”, “0.6 N-phosphoric” for “0.6N-phosphoric”

Cc1nc(NC(=O)c2nnn[nH]2)cs1 [Ia-1, N-(2-Methyl-4-thiazolyl)-1H-tetrazole-5-carboxamide] gave an inhibition in vivo at 15 mg/kg [1] of 60%.

Work on Cc1ccccc1-c1nc(NC(=O)c2nnn[nH]2)cs1 [Ia-3, N-(2-(2-methylphenyl)-4-thiazolyl)-1H-tetrazole-5-carboxamide] yielded an inhibition in vivo at 15 mg/kg [1] of 78%.

Compound Cc1cccc(-c2nc(NC(=O)c3nnn[nH]3)cs2)c1 [Ia-4, N-(2-(3-methylphenyl)-4-thiazolyl)-1H-tetrazole-5-carboxamide] has an inhibition in vivo at 15 mg/kg [1] of 39%.

Cc1ccc(-c2nc(NC(=O)c3nnn[nH]3)cs2)cc1 [Ia-5] was tested, and the inhibition in vivo at 25 mg/kg [1] was 90%.

COc1ccc(-c2nc(NC(=O)c3nnn[nH]3)cs2)cc1 [Ia-8] showed an inhibition in vivo at 15 mg/kg [1] of 80%.

O=C(Nc1csc(-c2ccc(Cl)cc2)n1)c1nnn[nH]1 [Ia-15, N-(2-(4-chlorophenyl)-4-thiazolyl)-1H-tetrazole-5-carboxamide] showed an inhibition in vivo at 15 mg/kg [1] of 50%.

CC(C)c1ccc(-c2nc(NC(=O)c3nnn[nH]3)cs2)cc1 [Ia-16, N-(2-(4-(1-methylethyl)phenyl)-4-thiazolyl) 1H-tetrazole-5-carboxamide] was tested, and the inhibition in vivo at 15 mg/kg [1] was 46%.

CC(C)(C)c1ccc(-c2nc(NC(=O)c3nnn[nH]3)cs2)cc1 [Ia-17, N-(2-(4-(1,1-dimethylethyl)phenyl)-4-thiazolyl)-1H-tetrazole-5-carboxamide] showed an inhibition in vivo at 15 mg/kg [1] of 47%.

Work on Cc1ccc(-c2nc(NC(=O)c3nnn[nH]3)c(C)s2)cc1 [Ia-19, N-(2-(4-methylphenyl)-5-methyl-4-thiazolyl)-1H-tetrazole-5-carboxamide] yielded an inhibition in vivo at 25 mg/kg [1] of 61%.

O=C(Nc1csc(-c2cccnc2)n1)c1nnn[nH]1 [Ia-23, N-(2-(3-Pyridyl)-4-thiazolyl)-1H-tetrazole-5-carboxamide] showed an inhibition in vivo at 15 mg/kg [1] of 40%.

O=C(Nc1csc(-c2cccs2)n1)c1nnn[nH]1 [Ia-25, N-(2-(2-thienyl)-4-thiazolyl)-1H-tetrazole-5-carboxamide] showed an inhibition in vivo at 15 mg/kg [1] of 43%.

O=C(Nc1csc(-c2ccc3ccccc3n2)n1)c1nnn[nH]1 [Ia-26, N-(2-(2-quinolyl)-4-thiazolyl)-1H-tetrazole-5-carboxamide] showed an inhibition in vivo at 15 mg/kg [1] of 42%.

O=C(Nc1nc(-c2ccccc2)cs1)c1nnn[nH]1 [Ib-1, N-(4-phenyl-2-thiazolyl)-1H-tetrazole-5-carboxamide] was tested, and the inhibition in vivo at 20 mg/kg [2] was 66%.

For COc1ccc(-c2csc(NC(=O)c3nnn[nH]3)n2)cc1 [Ib-4], the inhibition in vivo at 20 mg/kg [2] was 92%.

Cc1ccc(-c2csc(NC(=O)c3nnn[nH]3)n2)cc1 [Ib-5, N-(4-(4-Methylphenyl)-2-thiazolyl)-1H-tetrazole-5-carboxamide] was tested, and the inhibition in vivo at 20 mg/kg [2] was 89%.

With O=C(Nc1nc(-c2ccc(Cl)cc2)cs1)c1nnn[nH]1 [Ib-7, N-(4-(4-chlorophenyl)-2-thiazolyl)-1H-tetrazole-5-carboxamide] the inhibition in vivo at 20 mg/kg [2] was 70%.

Cc1sc(NC(=O)c2nnn[nH]2)nc1-c1ccccc1 [Ib-12, N-(5-methyl-4-phenyl-2-thiazolyl)-1H-tetrazole-5-carboxamide] gave an inhibition in vivo at 20 mg/kg [2] of 51%.

Compound Cc1ccc(-c2csc(C(=O)Nc3nnn[nH]3)n2)cc1 [Ib-13, 4-(4-Methylphenyl)-N-(1H-tetrazole-5-yl)-2-thiazolecarboxamide] has an inhibition in vivo at 30 mg/kg [2] of 60%.

COc1ccc(-c2csc(C(=O)Nc3nnn[nH]3)n2)cc1 [Ib-14, 4-(4-methoxyphenyl)-N (1H-tetrazole-5-yl)-2-thiazolecarboxamide] showed an inhibition in vivo at 30 mg/kg [2] of 50%.

With Cc1ccc(-c2nc(C)c(C(=O)Nc3nnn[nH]3)s2)cc1 [Ic-5, 4-methyl-2-(4-methylphenyl)-N-(1H-tetrazole-5-yl)-5-thiazolecarboxamide] the “Inhibition (%)” value ([3]; 30 mg/kg) was 49%.

With COc1ccc(-c2nc(C)c(C(=O)Nc3nnn[nH]3)s2)cc1 [Ic-6, 2-(4-Methoxyphenyl)-4-methyl-N-(1H-tetrazole-5-yl)-5-thiazolecarboxamide] the “Inhibition (%)” value ([3]; 30 mg/kg) was 56%.

For Cc1ccc(-c2nc(C)c(NC(=O)c3nnn[nH]3)s2)cc1 [Ic-13, N-(4-methyl-2-(4-methylphenyl)-5-thiazolyl)-1H-tetrazole-5-carboxamide], the “Inhibition (%)” value ([3]; 30 mg/kg) was 52%.

For COc1ccc(-c2nc(C)c(NC(=O)c3nnn[nH]3)s2)cc1 [Ic-14, N-(2-(4-Methoxyphenyl)-4-methyl-5-thiazolyl)-1H-tetrazole-5-carboxamide], the “Inhibition (%)” value ([3]; 30 mg/kg) was 50%.

For COc1ccc(/C=C/C(=O)Nc2ccccc2C(=O)O)cc1OC [Tranilast, reference compound], the inhibition in vivo at 50 mg/kg ([1]; 50 mg/kg) was 0%, the inhibition in vivo at 50 mg/kg ([2]; 50 mg/kg) was 0% and the “Inhibition (%)” value ([3]; 50 mg/kg) was 0%.

Source: patent publication US4946855A, “Carboxamide derivatives having tetrazole and thiazole rings and their use” (Sawai Pharmaceutical Co., Ltd., priority 1987, dated 1990)
